According to US20180008592A1, “TREATMENT OF UREMIC PRURITUS” (TREVI THERAPEUTICS, INC., priority 2016, published 2018):

Columns and labels:
[1] = test system: hemodialysis patients with uremic pruritus who completed the Example 2 study; experiment: Phase 2/3 Open Label Extension Study (up to 24 weeks); type: in vivo, human
Source text: This clinical study was a Phase 2/3 Open Label Extension Study of the randomized, double-blind, 3-parallel arm, placebo controlled dose ranging study described in Example 2. All those subjects who were randomized, and then completed Example 2 study, were eligible to participate in the Extension Study.
The primary endpoint was a description of the overall incidence and nature of Treatment-Emergent AEs (TEAES) with the secondary endpoint a description of the incidence and nature of TEAEs during Treatment Weeks 4-24. Exploratory efficacy endpoints related to collecting data on the PRO instruments (NRS, Skindex-10, Itch MOS Sleep, HADS, PADS), the same instruments evaluated in Example 2.
Of the 373 patients that were randomized to the study of Example 2, 184 subjects both completed the study of Example 2 and enrolled into Extension Study. 167 subjects who enrolled into Extension Study entered the Treatment Period of the study and were exposed to nalbuphine HCl ER tablet administration and are the basis of the study safety population analysis. 17 subjects who were enrolled in the Extension were never dosed, they were categorized as screen failures and they are not part of the analysis.
Patients in Extension Study were titrated over a dose range of 30 mg QD to 120 mg BID based on tolerability and efficacy. The selected dose range was based on Example 2 study whereby patients were titrated from a 30 mg QD dose either to 60 mg BID or a 120 mg BID dose. The highest dose proposed was 120 mg BID (240 mg daily dose), and was well below the highest recommended daily treatment of 160 mg IV (equivalent to 960 mg oral) for the current marketed product.
The study duration for each patient was up to 26 weeks, with up to 24 weeks on study drug. The Extension Study consisted of a Treatment Period (that was followed by a Washout Safety Follow-up Period) and an Observation Period. Patients either entered directly into a drug Treatment Period (NRS >2) or a no-drug Observation Period (NRS ≦2) based on their reported NRS scores on the first Visit (Visit 1a). For up to 12 Extended Screening weeks, patients in the no-drug Observation Period could have also transitioned into the drug Treatment Period if their NRS increased to NRS >2. All patients entering the Treatment Period, whether immediately upon study entry or following a period of time in the Observation Period, were titrated to a dose ranging between 30 mg up to 120 mg BID, the highest dose tested in Example 2.
The total study duration for any individual patient was up to 26 weeks. […] For patients who entered the Treatment Period from the Observation Period, the total amount of time spent in the combined two periods of the study could not exceed 24 weeks.

[2] = test system: renally impaired patients on hemodialysis with moderate or severe uremic pruritus; experiment: Randomized double-blind placebo-controlled trial: Worst Itching Intensity Numerical Rating Scale (NRS); type: in vivo, human; conditions: for Change from Baseline to the Evaluation Period NRS (mean SD): weeks 7 and 8, scale 0-10; for patients with ≧15% change from baseline to the Evaluation Period in the NRS: p=NS; for NRS, Change from Baseline to the Evaluation Period, mean (SD): severe pruritus subgroup (Baseline NRS ≧ 7), post-hoc
Description: This clinical study was a parallel, double-blind, placebo-controlled trial in which renally impaired patients on hemodialysis with moderate or severe uremic pruritus were randomized in a 1:1:1 ratio to nalbuphine ER tablets to a target dose of 120 mg BID or 60 mg BID, or matching placebo tablets BID. Medications taken for treatment of pruritus (“antipruritic medications”) were not prohibited, but their use was recorded throughout the study. Use of skin emollients was also not restricted. A placebo comparator was chosen because there are no approved treatments for uremic pruritus in the United States or Europe or an established standard of care that could serve as an active control.
The primary objectives were to evaluate the effects on itching intensity using a Worst Itching Intensity Numerical Rating Scale (NRS, 0 [no itching]-10 [worst possible itching]) (FIG. 7) as well as safety and tolerability. The study was conducted at 46 United States investigative sites and 6 investigative sites in Romania and Poland. The Sponsor oversaw the conduct of the trial and an independent unblinded Data Safety Monitoring Board reviewed safety data approximately once a month during the conduct of the trial.
To be eligible, patients had to have been on hemodialysis for 3 months, have a Patient Assessed Disease Severity (PADS) category of “B” or “C”, and a mean of 6 Worst Itching Numerical Rating Scale Scores during the week prior to randomization ≧4.5 on an 11-point scale (0, “no itching” to 10, “worst possible itching”) with at least 2 scores ≧5.0.
The primary endpoint was the change from Baseline to the Evaluation Period (Study weeks 7 and 8) in the modified intent-to-treat population. Quality of life-related secondary endpoints included change from Day 1 to the Evaluation Period in itching-related quality of life (using the Skindex-10 (FIG. 8)) and itching-related sleep disruption (using the Itch Medical Outcomes Study [Itch MOS] (FIG. 9), SLP-9). The Hospital Anxiety and Depression Score (HADS) used as a general measure of anxiety and depression. All patient-reported outcomes measures were selected based on their prior validation in uremic pruritus patients specifically or in the dialysis population more generally.
Patients were analyzed by group to which they were randomized.
The primary and quality of life secondary endpoint analyses used a mixed model repeated measures ANCOVA with the main effects of treatment and site and baseline worst itch NRS score as the covariate. The model included time (i.e. Visit) as a factor variable and treatment*time (with placebo as the reference category) with an unstructured covariance structure for repeated measures. Data from all post-baseline visits were used to fit the model. For the primary endpoint, the baseline value was defined as the mean of worst itch daytime and nighttime NRS scores used for satisfying the protocol inclusion criterion #5 (mean worst itching NRS≧4.5 based on a total of 3 daytime and 3 nighttime measurements from 3 dialysis visits). For the secondary endpoints, the baseline value was based on a measurement taken on Study Day 1, prior to randomization. A pre-specified step-down procedure was used. The first comparison was of nalbuphine 120 mg BID dose vs. placebo. If the first comparison was significant at the p<0.05 level, then the comparison between the nalbuphine 60 mg BID dose vs. placebo would be conducted. Patients with a 15% or greater response in worst itch NRS were analyzed using a Cochran-Mantel-Haenszel (CMH) test. Analysis of the Itch MOS utilized the SLP-9 scoring algorithm.
In the first 2 weeks of treatment, patients were blindly force-titrated to their assigned target dose, with the patients in the active arms reaching a dose of 60 mg BID (NAL 60) after the first week and, for those in the high dose group, to 120 mg BID (NAL 120) after the second week. Study drug was administered in blister cards containing the labeled morning and evening doses for each day of the week. […]

[3] = safety population, titrated 30 mg QD to 120 mg BID, up to 24 weeks, most pronounced with baseline NRS ≧7

Structure (SMILES): Cl.Oc1ccc2c3c1O[C@H]1[C@@H](O)CC[C@@]4(O)[C@@H](C2)N(CC2CCC2)CC[C@]314 [Nalbuphine, 17-(cyclobutylmethyl)-4,5α-epoxymorphinian-3,6α, 14-triol, hydrochloride]
- Mean Skindex-10 by week [1, 3]: decreased from baseline to all measured time points
- Mean worst itch NRS by week [1, 3]: decreased from baseline to all measured time points
- safety findings ([1]; treatment period up to 24 weeks): consistent with the known safety profile of nalbuphine
- tolerance to the anti-pruritic effects ([1]; up to 24 weeks): do not develop a tolerance
- difference vs. placebo in worst itching NRS (primary endpoint) ([2]; 60 mg BID): no significant difference
- Change from Baseline to the Evaluation Period NRS (mean SD) ([2]; 60 mg BID ER tablets, N = 128, baseline NRS 6.9 (1.4)): −3.1 (2.4)
- Difference in the Change from Baseline to the Evaluation Period (LSMEAN, SE) vs. placebo ([2]; 60 mg BID, 95% CI (−0.84, 0.37), p = 0.441): −0.24 (0.31)
- patients with ≧15% change from baseline to the Evaluation Period in the NRS ([2]; 60 mg BID): 80.5%
- Change from Baseline to the Evaluation Period NRS (mean SD) ([2]; 120 mg BID ER tablets, N = 120, baseline NRS 6.9 (1.5), hydrochloride): −3.5 (2.4)
- development of tolerance to the effect on itch ([2]; 120 mg BID, 8-week treatment period): no apparent development of tolerance
- Difference in the Change from Baseline to the Evaluation Period (LSMEAN, SE) vs. placebo ([2]; 120 mg BID, 95% CI (−1.34, −0.13), p = 0.017): −0.73 (0.31)
- reduction in itching intensity ([2]; 120 mg BID, moderate and severe uremic pruritus): 49%
- patients with ≧15% change from baseline to the Evaluation Period in the NRS ([2]; 120 mg BID): 84.5%
- NRS, Change from Baseline to the Evaluation Period, mean (SD) ([2]; 60 mg BID, N = 61, baseline 8.0 (0.9)): −3.4 (2.6)
- NRS, Change from Baseline to the Evaluation Period, mean (SD) ([2]; 120 mg BID, N = 63, baseline 8.2 (0.8), p < 0.01): −4.5
- improvement of itching intensity and Itch MOS compared with placebo ([2]; severe subgroup (Baseline NRS ≧7.0), 60 mg BID): Neither itching intensity nor Itch MOS improved significantly
- decrease of mean itching intensity ([2]; severe subgroup (Baseline NRS ≧7.0), 120 mg BID): 55%
- absolute reduction of mean itching intensity (NRS) ([2]; severe subgroup (Baseline NRS ≧7.0, n=179), 120 mg BID, baseline 8.2 (0.8), p=0.007 vs. placebo): 4.5 (2.5)
